These results are taken from patent publication US20150079158A1, “METHOD TO STABILIZE LIPOSOME EMULSIONS FOR BIOCIDAL DELIVERY” (General Electric Company, priority 2012, published 2015).

Structures are written as SMILES.

A short description of the data set: HPLC analysis of active degradation after accelerated storage. The format is physicochemical. Here is the method:
The degradation of the biocide-containing liposome emulsion can be qualitatively observed by the formation of an insoluble precipitate. Quantitatively, high pressure liquid chromatography (HPLC) analysis was used to determine actives concentrations for samples stored under accelerated storage conditions. The samples that passed 90 days at 35° C. or 30 days at 50° C. were taken to ambient temperature and analyzed. The stability of these liposome emulsions was determined as follows.
HPLC analysis was executed for active degradation of 5-chloro-2-methyl-4-isothiazolin-3-one and 2-methyl-4-isothiazolin-3-one in the samples after 90 days at 35° C. or 30 days at 50° C.

Take `Cn1sccc1=O` [2-methyl-4-isothiazolin-3-one]: the “active degradation (HPLC)” value is “less than 10%”.
